Source: patent US8445509B2, “Fused heterocyclic derivatives and use thereof” (Takeda Pharmaceutical Company Limited, priority 2008, dated 2013)

What was measured:
MV-4-11 cells = assay: Antitumor test, MV-4-11 transplanted nude mouse; format: in vivo, nude mouse (BALB/c nu/nu); conditions: MV-4-11, dose 2 mg/kg, orally, 14 consecutive days
Description: (§1) Cancer cells were cultured in a culture medium containing 10% bovine fetal serum in an incubator at 37° C., 5% CO2. MKN-45 cells were treated with trypsin/EDTA and isolated. MKN-45 and MV-4-11 cells were washed with HBSS (HANK's Balanced Saline Solution). When MKN-45 cells were transplanted, they were adjusted with HBSS to a cell density of 1.2×10^8 cells/mL, and transplanted by subcutaneous injection of 0.05 mL of a mixed suspension (3×10^6 cells) of the cell suspension and the same amount of Matrigel into the abdomen of 6 or 7-week-old female nude mouse (BALB/c nu/nu, CLEA Japan, Inc.). When MV-4-11 cells were transplanted, they were adjusted with HESS to a cell density of 1.2×10^8 cells/mL, and transplanted by subcutaneous injection of 0.05 mL of a mixed suspension (3×10^6 cells) of the cell suspension and the same amount of Matrigel into the abdomen of 7-week-old female nude mouse (BALB/c nu/nu, CLEA Japan, Inc.). When the average tumor volume reached 100-250 mm^3, the mice were grouped, and various doses of test substance were orally administered for 14 consecutive days starting from the next day. The length of the major axis and the length of the minor axis of the tumor were measured over time and the tumor volume was calculated by tumor volume=major axis length×minor axis length×minor axis length×0.5. The ratio of an increase in the average tumor volume of the control group to an increase in the average tumor volume of the drug administration group was taken as the tumor growth rate (%) of the drug administration group. Table 5 showned MKN-45 tumor growth rate (%) and table 6 showned MV-4-11 tumor growth rate (%).

MKN-45 cells = assay: Antitumor test, MKN-45 transplanted nude mouse; format: in vivo, nude mouse (BALB/c nu/nu); conditions: orally, 14 consecutive days
Description: as §1

[1] = target: T1, FLT3 intracellular domain protein (Homo sapiens, UniProt P36888); assay: Fms Like Tyrosine Kinase 3 (FLT3) kinase inhibitory activity (AlphaScreen); format: biochemical
T1 construct: 7.5 ng/ml of FLT3 intracellular domain protein (Millipore); purchased Millipore
T1 sequence (P36888 564-993 limits assumed): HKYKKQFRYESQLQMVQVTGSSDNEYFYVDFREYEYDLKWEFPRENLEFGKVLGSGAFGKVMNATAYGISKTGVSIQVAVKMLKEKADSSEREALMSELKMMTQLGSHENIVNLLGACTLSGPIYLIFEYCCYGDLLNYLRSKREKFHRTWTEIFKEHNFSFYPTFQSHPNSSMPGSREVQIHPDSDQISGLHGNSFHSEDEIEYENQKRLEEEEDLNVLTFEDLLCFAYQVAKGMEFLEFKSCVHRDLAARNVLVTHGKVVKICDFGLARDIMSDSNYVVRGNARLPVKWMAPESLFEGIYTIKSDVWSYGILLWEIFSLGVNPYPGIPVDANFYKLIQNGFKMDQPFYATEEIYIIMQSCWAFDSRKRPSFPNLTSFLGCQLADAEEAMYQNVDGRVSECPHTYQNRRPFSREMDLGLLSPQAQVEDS
Description: A test compound dissolved in dimethyl sulfoxide (DMSO) was diluted with a buffer (50 mM Tris-HCl (pH 7.5), 5 mM MgCl2, 5 mM MnCl2, 2 mM dithiothreitol, 0.01% Tween-20). To this compound solution (5 μL) was added a buffer (10 μL) containing 7.5 ng/ml of FLT3 intracellular domain protein (Millipore) and 250 ng/mL of biotin labeled polypeptide biotinyl-poly-Glu:Tyr (4:1) (CIS bio International). At 5 min after mixing kinase enzyme and the compound and biotin labeled polypeptide, to the obtained mixture was added a buffer (10 μL) containing ATP (5 μM), the mixture was allowed to react at 25° C. for 10 min and the reaction was quenched with 25 μL of a stop solution (100 mM EDTA disodium salt, 62.5 mM HEPES buffer (pH 7.4), 250 mM NaCl, 0.1% bovine serum albumin, 10 μg/mL AlphaScreen assay streptavidin donor beads (Streptavidin Donor Beads: PerkinElmer), 10 μg/mL AlphaScreen assay anti-phosphotyrosine recognition antibody Y-100 binding acceptor beads (Anti-phosphotyrosine (P-Tyr-100) Acceptor beads: PerkinElmer)). The reaction solution was allowed to stand at 25° C. for 16 hrs, and the wells were counted using a plate reader (Envision™ (PerkinElmer)). The kinase inhibitory rate (%) of the test compound was calculated by the following formula: Inhibitory rate (%)=(1−(count of test compound−blank)÷(control−blank))×100
(§2) The count of the solution reacted without addition of the compound was used as a “control”, and the count of the solution without the compound and ATP was used as a “blank”.

[2] = tested on: Human umbilical vein-derived vascular endothelial cells (HUVEC); assay: Vascular endothelial cell proliferation inhibitory test (VEGF-stimulated HUVEC); format: cell-based; conditions: 120 h, 5 days of culture with VEGF
Description: Human umbilical vein-derived vascular endothelial cells (HUVEC purchased from KURABO […] LTD.) were cultured in an incubator at 37° C., 5% carbon dioxide in a vascular endothelial cell medium (Invitrogen) containing 3% bovine fetal serum and 2.5 ng/mL basic fibroblast growth factor. To be specific, HUVEC was suspended in a vascular endothelial cell medium containing the aforementioned 3% bovine fetal serum and plated on a 96 well flat bottom plate by 50 μL (3000 cells) each well. After culture overnight, various concentrations of the test substance and 120 ng/mL of vascular endothelial growth factor (VEGF) were dissolved in a vascular endothelial cell medium containing 3% bovine fetal serum and added to each well by 50 μL. After 5 days of culture, a Cell counting kit-8 reagent (DOJINDO LABORATORIES) was added to each well by 10 μL, and the mixture was reacted in an incubator at 37° C., 5% carbon dioxide for 2-3 hr. The absorbance at 450 nm was measured by a microtiter plate reader and the cell proliferation inhibitory activity was determined. Using the absorbance with addition of a test substance at each concentration and based on the nonlinear least-squares analysis using a logistic curve of SAS system NLIN procedure, the concentration of the test substance (IC50 value) necessary for showing 50% of the value obtained without addition of the test substance was calculated.

[3] = tested on: Human gastric cancer cell line MKN-45; assay: Human gastric cancer cell line MKN-45 growth inhibitory test; format: cell-based; conditions: MKN-45, 72 h
Description: Human gastric cancer cell line MKN-45 (RIKEN BioResource Center) was cultured in RPMI1640 (Invitrogen) containing 10% bovine fetal serum in a gas incubator at 37° C., 5% CO2. MKN-45 cells were treated with trypsin/EDTA and recovered. The cells were suspended in RPMI1640 containing 0.3% bovine fetal serum, plated on a 96 well flat bottom plate at a cells density of 3000 cells/50 μL per well. After culturing overnight, various concentrations of test substance were dissolved in RPMI1640 containing 0.3% bovine fetal serum and added to each well by 50 μL. After culture for 3 days, a Cell counting kit-8 reagent (DOJINDO LABORATORIES) was added to each well by 10 μL, and reacted in an incubator at 37° C., 5% CO2 for 2-3 hr. After the reaction, the absorbance of each well at 450 nm was measured by a microtiter plate reader. The concentration of a test substance necessary for inhibiting the growth by 50% (IC50 value) was calculated using a cell proliferation rate with addition of the test substance at each concentration and according to the nonlinear regression analysis using GraphPad Prism [Sigmoidal dose response (variable slope)]. The cell proliferation rate (%) with addition of a test substance at each concentration was calculated by the following formula. As a positive control (100% growth), dimethyl sulfoxide was added instead of a test substance. As a negative control (0% growth), the compound of Reference Example 136 (WO2005/030140, Entry 104), which is a known c-Met inhibitor, was added in large excess (10 μM) instead of a test substance.

[4] = tested on: Human blood cell cancer cell line MV-4-11; assay: Human blood cell cancer cell line MV-4-11 growth inhibitory test; format: cell-based; conditions: MV4-11, 72 h, culture for 3 days
Description: Human blood cell cancer cell line MV-4-11 (ATCC) was cultured in IMDM (Invitrogen) containing 10% bovine fetal serum in an incubator at 37° C., 5% CO2. MV-4-11 cells were treated with trypsin/EDTA and recovered. The cells were suspended in IMDM containing 10% bovine fetal serum, plated on a 96 well flat bottom plate at a cells density of 30,000 cells/50 μL per well. After culturing overnight, various concentrations of test substance were dissolved in IMDM containing 10% bovine fetal serum and added to each well by 50 μL. After culture for 3 days, a Cell counting kit-8 reagent (DOJINDO LABORATORIES) was added to each well by 10 μL, and reacted in an incubator at 37° C., 5% CO2 for 2-3 hr. After the reaction, the absorbance of each well at 450 nm was measured by a microtiter plate reader. The concentration of a test substance necessary for inhibiting the growth by 50% (IC50 value) was calculated using a cell proliferation rate with addition of the test substance at each concentration and according to the nonlinear regression analysis using GraphPad Prism [Sigmoidal dose response (variable slope)].

[5] = target: T2, Tie2 intracellular domain protein (Homo sapiens, UniProt Q02763); assay: TIE2 kinase inhibitory activity (AlphaScreen); format: biochemical
T2 construct: 50 ng/mL of Tie2 intracellular domain protein (Millipore); purchased Millipore
Description: A test compound dissolved in dimethyl sulfoxide (DMSO) was diluted with a buffer (50 mM Tris-HCl (pH 7.5), 5 mM MgCl2, 5 mM MnCl2, 2 mM dithiothreitol, 0.01% Tween-20). A buffer (10 μL) containing 50 ng/mL of Tie2 intracellular domain protein (Millipore) and 250 ng/ml, of biotin labeled polypeptide biotinyl-poly-Glu:Tyr (4:1) (CIS bio International) was added to the compound solution (5 μL). At 5 min from the mixing of the kinase enzyme, the compound and the biotin labeled polypeptide, a buffer (10 μL) containing 5 μM ATP was added, and the mixture was reacted at 25° C. for 10 min. The reaction was quenched by the addition of 25 μL of a stop solution (100 mM EDTA disodium salt, 62.5 mM HEPES buffer (pH 7.4), 250 mM NaCl, 0.1% bovine serum albumin, 10 μg/ml AlphaScreen assay streptavidin donor beads (Streptavidin Donor beads: PerkinElmer), 10 μg/ml, AlphaScreen assay anti-phosphotyrosine recognition antibody PT-66 binding acceptor beads (Anti-phosphotyrosine (PT-66) Acceptor beads: PerkinElmer)). The reaction solution was allowed to stand at 25° C. for 16 hrs, and the […] were counted using a plate reader (Fusion™ (PerkinElmer)). The kinase inhibitory rate (%) of the test compound was calculated by the following formula: Inhibitory rate (%)=(1−(count of test compound−blank)÷(control−blank))×100
as §2

T2 sequence (Q02763 770-1124 limits assumed): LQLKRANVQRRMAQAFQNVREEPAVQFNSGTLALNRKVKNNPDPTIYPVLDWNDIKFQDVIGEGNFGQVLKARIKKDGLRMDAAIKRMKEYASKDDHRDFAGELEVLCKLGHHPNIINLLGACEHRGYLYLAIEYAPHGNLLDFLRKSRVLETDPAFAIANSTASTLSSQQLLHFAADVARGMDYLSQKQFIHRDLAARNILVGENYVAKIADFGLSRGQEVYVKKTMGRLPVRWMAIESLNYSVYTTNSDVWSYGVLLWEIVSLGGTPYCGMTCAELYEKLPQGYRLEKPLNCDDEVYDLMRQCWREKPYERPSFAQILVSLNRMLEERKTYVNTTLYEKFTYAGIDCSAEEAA

Cl.O=C(Nc1cn2cc(Oc3ccc(NC(=O)C4(C(=O)Nc5ccccc5)CC4)cc3F)ccc2n1)C1CC1 [Example 15, N-[4-({2-[(cyclopropylcarbonyl)amino]imidazo[1,2-a]pyridin-6-yl}oxy)-3-fluorophenyl]-N′-phenylcyclopropane-1,1-dicarboxamide hydrochloride]
tumor growth rate (%) (MV-4-11 cells): 17% | tumor growth rate (%) (MKN-45 cells; MKN-45, dose 2 mg/kg): 85%

Cc1ccc(C(=O)Nc2ccc(Oc3ccc4nc(NC(=O)C5CC5)cn4c3)cn2)[n+]([O-])c1-c1ccc(F)cc1.Cl.O [Example 63, N-[5-({2-[(cyclopropylcarbonyl)amino]imidazo[1,2-a]pyridin-6-yl}oxy)pyridin-2-yl]-6-(4-fluorophenyl)-5-methylpyridine-2-carboxamide 1-oxide•hydrochloride•monohydrate]
tumor growth rate (%) (MV-4-11 cells): <0% | tumor growth rate (%) (MKN-45 cells; MKN-45, dose 1 mg/kg): 24%

Cc1ccc(C(=O)Nc2ccc(Oc3ccc4nc(NC(=O)C5CC5)cn4c3)c(F)c2)c(=O)n1-c1ccccc1 [Example 86, N-[4-({2-[(cyclopropylcarbonyl)amino]imidazo[1,2-a]pyridin-6-yl}oxy)-3-fluorophenyl]-6-methyl-2-oxo-1-phenyl-1,2-dihydropyridine-3-carboxamide acetate]
IC50 [1]: ≤ 1 µM | IC50 [2]: ≤ 2 µM | IC50 ([3]; read-out: IC50 value): ≤ 1 µM | inhibition at 1 µM ([3]; read-out: inhibitory rate (%) at 1 μM, 1 μM test substance, culture for 3 days): ≥ 80% | inhibition at 1 µM ([4]; 1 μM test substance, read-out: inhibitory rate (%) at 1 μM): ≥ 90% | IC50 [4]: ≤ 1 µM | IC50 [5]: ≤ 1 µM

Cc1ccc(C(=O)Nc2ccc(Oc3ccc4nc(NC(=O)C5CC5)cn4c3)c(F)c2)c(=O)n1-c1ccccc1.Cc1ccc(S(=O)(=O)O)cc1 [Example 87, N-[4-({2-[(cyclopropylcarbonyl)amino]imidazo[1,2-a]pyridin-6-yl}oxy)-3-fluorophenyl]-6-methyl-2-oxo-1-phenyl-1,2-dihydropyridine-3-carboxamide p-toluenesulfonate]
tumor growth rate (%) (MV-4-11 cells): <0% | tumor growth rate (%) (MKN-45 cells; MKN-45, dose 2 mg/kg): 17%

Cc1ccc(C(=O)Nc2ccc(Oc3ccc4nc(NC(=O)C5CC5)cn4c3)c(F)c2)c(=O)n1-c1ccccc1.Cl [Example 88, N-[4-({2-[(cyclopropylcarbonyl)amino]imidazo[1,2-a]pyridin-6-yl}oxy)-3-fluorophenyl]-6-methyl-2-oxo-1-phenyl-1,2-dihydropyridine-3-carboxamide hydrochloride]
tumor growth rate (%) (MV-4-11 cells): <0% | tumor growth rate (%) (MKN-45 cells; MKN-45, dose 2 mg/kg): 17%
